Experimental data taken from patent US20240246942A1, “KINASE INHIBITORS FOR THE TREATMENT OF NEURODEGENERATIVE DISEASES” (priority 2020, published 2024).

Key:
[1] = molecular target: T1, panel of 374 wild-type kinases (Homo sapiens, UniProt P53779); test: biochemical; conditions: read-out: % Enzyme Activity (relative to DMSO controls), JNK3; 10 uM
T1 construct: purchased Reaction Biology Corporation

[2] = Pharmacokinetics / brain exposure in mice; format: in vivo, C57Bl/6J mice
Experimental: Pharmacokinetics studies were conducted in C57Bl/6J mice. The compound was formulated in a generic formulation at 1 mg/mL (e.g. 10:40:4:46, DMSO:PEG 400: tween 80: PBS, v:v:v:v) or other specified formulations and dosed at 1 mg/kg intravenous into the femoral vein or 1-10 mg/kg by oral gavage, or […]. Blood was obtained at t=5 min, 15 min, 30 min, 1 hr, 2 hr, 4 hr, 6 hr, and 8 hr. Blood was collected by heart puncture into EDTA containing tubes and plasma was generated by standard centrifugation methods. Brains were collected following perfusion with ice-cold saline, and snap frozen in liquid N2. Both plasma and brains were stored at −80° C. until processing. All procedures and handling were according to standard operating procedures approved by […] at Scripps Florida and/or Ohio State University. In order to assess in vivo pharmacokinetic parameters an LC-MS/MS bioanalytical method was developed where 25 TI of plasma was treated with 125 TI of acetonitrile containing an internal standard in a Millipore Multscreen Slovinter 0.45 micron low binding PTFE hydrophilic filter plate (#MSRLN0450) and allowed to shake at room temperature for five minute. The plate was then centrifuged for 5 minutes at 4000 rpm in a tabletop centrifuge and the filtrate was collected in a polypropylene capture plate. The filtrate (10 TI) is injected using an Agilent 1200 HPLC equipped with a Thermo Betasil C18 HPLC column 5 T (50×2.1 mm) #70105-052130. Mobile Phase A was water with 0.1% formic acid. Mobile phase B was acetonitrile with 0.1% formic acid. […] An API Sciex 4000 equipped with a turbo ion spray source was used for all analytical measurement. MRM methods were developed in position ion mode. Peak areas of the analyte ion were measured against the peak areas of the internal standard. Data was fit using WinNonLin using an IV bolus model.

p38α = p38α (Homo sapiens, UniProt Q16539); test: p38 enzyme inhibition assay; conditions: mean of ≥2 experiments; read-out: Biochemical inhibition IC50 p38α
Chain of p38α (Q16539 whole entry): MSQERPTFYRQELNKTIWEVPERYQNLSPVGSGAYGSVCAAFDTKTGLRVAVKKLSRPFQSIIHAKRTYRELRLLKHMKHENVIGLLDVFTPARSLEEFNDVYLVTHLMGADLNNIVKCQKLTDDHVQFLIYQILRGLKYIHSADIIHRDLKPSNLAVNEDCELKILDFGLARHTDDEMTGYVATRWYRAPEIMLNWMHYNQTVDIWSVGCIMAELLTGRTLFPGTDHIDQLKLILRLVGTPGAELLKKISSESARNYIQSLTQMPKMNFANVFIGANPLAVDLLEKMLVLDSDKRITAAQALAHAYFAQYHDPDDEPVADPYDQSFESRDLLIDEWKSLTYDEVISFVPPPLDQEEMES

JNK2 = JNK2 (Homo sapiens, UniProt P45984); test: JNK2 homogeneous time-resolved fluorescence enzyme inhibition assay; format: biochemical; conditions: mean of ≥2 experiments; read-out: Biochemical inhibition IC50 JNK2
Chain of JNK2 (P45984 whole entry): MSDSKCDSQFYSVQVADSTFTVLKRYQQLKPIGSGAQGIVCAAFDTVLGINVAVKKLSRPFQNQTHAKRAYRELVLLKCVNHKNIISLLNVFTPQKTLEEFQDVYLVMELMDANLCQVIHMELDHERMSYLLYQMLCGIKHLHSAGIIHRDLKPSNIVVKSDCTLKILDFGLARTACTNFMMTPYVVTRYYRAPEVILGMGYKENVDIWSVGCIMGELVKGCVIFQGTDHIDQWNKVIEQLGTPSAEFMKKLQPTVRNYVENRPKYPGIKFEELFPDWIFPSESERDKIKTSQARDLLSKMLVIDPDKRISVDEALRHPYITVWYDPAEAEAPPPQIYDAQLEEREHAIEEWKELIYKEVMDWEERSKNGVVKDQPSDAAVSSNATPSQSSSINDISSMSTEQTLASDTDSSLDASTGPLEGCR
Experimental: A 10-point titration of all compounds was carried out in 3-fold dilutions from 10 μM to 0.5 nM.

[3] = molecular target: T2, panel of 374 wild-type kinases (Homo sapiens, UniProt Q9H792); test: biochemical; conditions: read-out: % Enzyme Activity (relative to DMSO controls), kinase PEAK1; 5 uM
T2 construct: purchased Reaction Biology Corporation
T2 sequence (Q9H792 whole entry): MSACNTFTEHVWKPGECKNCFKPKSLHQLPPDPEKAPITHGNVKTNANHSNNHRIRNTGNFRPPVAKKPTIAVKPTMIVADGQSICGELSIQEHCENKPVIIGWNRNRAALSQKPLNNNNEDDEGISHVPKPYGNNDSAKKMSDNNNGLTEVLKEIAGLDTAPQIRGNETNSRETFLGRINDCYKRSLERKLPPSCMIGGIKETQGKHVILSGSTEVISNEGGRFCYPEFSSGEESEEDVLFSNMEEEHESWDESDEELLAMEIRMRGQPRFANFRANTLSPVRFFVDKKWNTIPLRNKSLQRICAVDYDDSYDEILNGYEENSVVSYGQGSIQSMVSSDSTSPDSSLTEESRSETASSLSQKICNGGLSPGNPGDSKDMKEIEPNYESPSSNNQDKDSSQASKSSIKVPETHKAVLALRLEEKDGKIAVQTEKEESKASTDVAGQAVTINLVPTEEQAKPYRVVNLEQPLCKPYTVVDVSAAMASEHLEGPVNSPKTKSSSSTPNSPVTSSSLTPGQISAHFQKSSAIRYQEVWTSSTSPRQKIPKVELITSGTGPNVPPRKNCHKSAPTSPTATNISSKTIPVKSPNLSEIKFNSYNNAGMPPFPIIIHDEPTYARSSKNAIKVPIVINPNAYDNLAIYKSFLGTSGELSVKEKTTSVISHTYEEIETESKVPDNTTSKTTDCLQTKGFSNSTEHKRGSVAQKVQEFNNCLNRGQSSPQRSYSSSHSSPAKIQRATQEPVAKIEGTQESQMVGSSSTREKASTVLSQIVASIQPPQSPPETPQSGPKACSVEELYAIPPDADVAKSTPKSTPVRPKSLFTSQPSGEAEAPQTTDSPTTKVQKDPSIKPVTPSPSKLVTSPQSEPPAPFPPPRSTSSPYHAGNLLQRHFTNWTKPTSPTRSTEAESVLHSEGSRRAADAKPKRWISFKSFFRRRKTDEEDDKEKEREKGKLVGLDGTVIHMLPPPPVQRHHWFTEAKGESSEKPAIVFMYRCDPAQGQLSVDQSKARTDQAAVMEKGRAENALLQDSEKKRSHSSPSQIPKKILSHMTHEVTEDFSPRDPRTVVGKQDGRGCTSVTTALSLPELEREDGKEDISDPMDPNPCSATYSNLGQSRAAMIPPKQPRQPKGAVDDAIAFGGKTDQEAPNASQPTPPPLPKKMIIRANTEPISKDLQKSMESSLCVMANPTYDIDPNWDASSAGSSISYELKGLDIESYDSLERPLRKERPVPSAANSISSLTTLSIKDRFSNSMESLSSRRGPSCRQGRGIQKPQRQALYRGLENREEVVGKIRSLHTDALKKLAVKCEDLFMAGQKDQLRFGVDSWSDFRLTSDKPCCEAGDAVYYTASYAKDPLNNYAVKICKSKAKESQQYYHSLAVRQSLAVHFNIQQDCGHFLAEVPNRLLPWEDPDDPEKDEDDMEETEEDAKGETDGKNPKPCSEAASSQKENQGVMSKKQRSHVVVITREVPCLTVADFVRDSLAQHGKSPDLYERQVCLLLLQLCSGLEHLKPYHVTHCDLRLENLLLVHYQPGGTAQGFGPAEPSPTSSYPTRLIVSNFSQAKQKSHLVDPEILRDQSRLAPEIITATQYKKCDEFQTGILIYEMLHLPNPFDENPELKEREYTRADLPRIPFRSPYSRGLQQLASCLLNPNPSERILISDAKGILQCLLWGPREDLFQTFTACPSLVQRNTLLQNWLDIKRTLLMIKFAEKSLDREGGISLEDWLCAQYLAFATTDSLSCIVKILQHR

[4] = molecular target: T3, panel of 374 wild-type kinases (Homo sapiens, UniProt Q86SG6); test: biochemical; conditions: read-out: % Enzyme Activity (relative to DMSO controls), NEK8; 5 uM
T3 construct: purchased Reaction Biology Corporation
T3 sequence (Q86SG6 whole entry): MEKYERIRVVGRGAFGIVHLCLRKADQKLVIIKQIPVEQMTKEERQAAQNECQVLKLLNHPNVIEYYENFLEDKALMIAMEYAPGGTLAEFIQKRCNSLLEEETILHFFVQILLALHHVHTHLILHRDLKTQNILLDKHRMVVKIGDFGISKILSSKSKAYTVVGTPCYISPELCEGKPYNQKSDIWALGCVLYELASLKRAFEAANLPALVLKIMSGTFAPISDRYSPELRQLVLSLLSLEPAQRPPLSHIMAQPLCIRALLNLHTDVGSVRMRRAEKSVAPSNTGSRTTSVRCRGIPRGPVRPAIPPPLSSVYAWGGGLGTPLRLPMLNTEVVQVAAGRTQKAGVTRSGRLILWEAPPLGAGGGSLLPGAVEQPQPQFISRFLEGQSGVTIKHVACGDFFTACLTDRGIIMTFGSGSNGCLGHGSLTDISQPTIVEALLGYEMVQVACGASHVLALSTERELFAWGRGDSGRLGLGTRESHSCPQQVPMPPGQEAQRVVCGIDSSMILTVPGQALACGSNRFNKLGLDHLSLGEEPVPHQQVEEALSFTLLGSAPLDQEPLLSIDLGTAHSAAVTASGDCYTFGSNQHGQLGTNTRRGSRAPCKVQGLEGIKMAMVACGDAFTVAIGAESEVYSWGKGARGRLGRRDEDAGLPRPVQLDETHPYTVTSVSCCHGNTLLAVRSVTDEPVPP

T1 sequence (P53779 whole entry): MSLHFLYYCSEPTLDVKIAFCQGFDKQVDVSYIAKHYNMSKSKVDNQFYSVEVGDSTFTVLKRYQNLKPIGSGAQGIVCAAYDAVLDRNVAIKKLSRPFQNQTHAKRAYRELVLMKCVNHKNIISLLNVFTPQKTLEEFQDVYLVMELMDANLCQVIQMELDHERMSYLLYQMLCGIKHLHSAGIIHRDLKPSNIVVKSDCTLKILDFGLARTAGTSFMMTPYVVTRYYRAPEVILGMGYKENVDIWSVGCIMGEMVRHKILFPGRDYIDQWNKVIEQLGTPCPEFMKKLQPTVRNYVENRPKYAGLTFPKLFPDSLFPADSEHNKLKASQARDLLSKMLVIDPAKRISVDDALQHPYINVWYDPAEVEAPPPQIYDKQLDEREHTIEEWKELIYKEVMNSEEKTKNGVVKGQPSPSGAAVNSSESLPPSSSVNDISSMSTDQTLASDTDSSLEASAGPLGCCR

| SMILES | remaining activity at 10 µM [1] [%] | brain penetration capability ([2]; po dosing) | oral bioavailability ([2]; po dosing) | Brain Concentration ([2]; po, 10 mg/kg) [nM] | Plasma Concentration ([2]; po, 10 mg/kg) [nM] | IC50 (p38α) [nM] | IC50 (JNK2) [nM] | remaining activity at 5 µM [3] [%] | remaining activity at 5 µM [4] [%] |
| --- | --- | --- | --- | --- | --- | --- | --- | --- | --- |
| Cc1sc(C(=O)NC2COC2)cc1-n1cc(NC(=O)Nc2c(F)cccc2Cl)cn1 [Compound 27, 4-(4-(3-(2-chloro-6-fluorophenyl)ureido)-1H-pyrazol-1-yl)-5-methyl-N-(oxetan-3-yl)thiophene-2-carboxamide] | 10.5 | – | – | – | – | – | – | – | – |
| O=C(Nc1cnn(-c2csc(C(=O)NC3COC3)c2)c1)Nc1ccccc1Cl [Compound 17, 4-(4-(3-(2-chlorophenyl)ureido)-1H-pyrazol-1-yl)-N-(oxetan-3-yl)thiophene-2-carboxamide] | – | brain penetrant | has oral bioavailability | 1080 | 960 | > 20000 | 1360 | 91.4 | 107 |
